Experimental data taken from patent US9518018B2, “3-alkoxy, thioalkyl and amino-4-amino-6-(substituted)picolinates and their use as herbicides” (Dow AgroSciences LLC, priority 2011, dated 2016).

Columns and labels:
Format in all cases: in vivo
[1] = test system: SETFA: foxtail, giant (Setaria faberi); assay: Pre-emergent Test I herbicidal activity; conditions: Table 5, 140 g ai/ha
Text: (§1) Seeds of the desired test plant species were planted in a soil matrix prepared by mixing a loam soil (43 percent silt, 19 percent clay, and 38 percent sand, with a pH of about 8.1 and an organic matter content of about 1.5 percent) and sand in a 70 to 30 ratio. The soil matrix was contained in plastic pots with a surface area of 113 square centimeters. When required to ensure good germination and healthy plants, a fungicide treatment and/or other chemical or physical treatment was applied.
(§2) A weighed amount, determined by the highest rate to be tested, of each test compound was placed in a 25 mL glass vial and was dissolved in 6 mL of a 97:3 v/v (volume/volume) mixture of acetone and DMSO to obtain concentrated stock solutions. […] The stock solutions obtained were diluted with 18 mL of a 0.1% v/v aqueous solution of Tween® 20 surfactant to obtain spray solutions containing the highest application rate. Additional application rates were obtained by serial dilution of 12 mL of the high rate solution into a solution containing 3 mL of 97:3 v/v mixture of acetone and DMSO and 9 mL of the 0.1% v/v aqueous solution of Tween® 20 surfactant to obtain ½×, ¼×, ⅛× and 1/16× rates of the high rate. Compound requirements are based upon a 12 mL application volume at a rate of 187 L/ha. Formulated compounds were applied to the plant material with an overhead Mandel track sprayer equipped with 8002E nozzles calibrated to deliver 187 L/ha over an application area of 0.503 square meters at a spray height of 18 inches ([…]) above the soil surface. Control plants were sprayed in the same manner with the solvent blank.
(§3) The treated pots and control pots were placed in a greenhouse maintained with an approximate 15 hour photoperiod and temperatures of about 23-29° C. during the day and 22-28° C. during the night. Nutrients and water were added on a regular basis and supplemental lighting was provided with overhead metal halide 1000-Watt lamps as necessary. The water was added by top-irrigation. After 20-22 days, the condition of the test plants that germinated and grew as compared with that of the untreated plants that emerged and grew was determined visually and scored on a scale of 0 to 100 percent where 0 corresponds to no injury and 100 corresponds to complete kill or no emergence.

ZEAMX: corn (Zea mays) = assay: Pre-emergent Test I herbicidal activity; conditions: Table 5, 140 g ai/ha
Text: as §1, §2, §3

[2] = test system: CYPRO = Cyperus rotundus L. (purple nutsedge); assay: In-water applied herbicidal activity in transplanted paddy rice; conditions: 21 DAA
Procedure: (§4) Rice seeds were planted in Sun Gro MetroMix 306 planting mixture, which typically has a pH of 6.0 to 6.8 and an organic matter content of about 30 percent, in plastic plug trays. Seedlings at the second or third leaf stage of growth were transplanted into 650 mL of mud contained in 960 mL non-perforated plastic pots with a surface area of 86.59 cm^2 four days prior to herbicide application. The paddy was created by filling the 2.5 to 3 cm headspace of the pots with water. When required to ensure good germination and healthy plants, a fungicide treatment and/or other chemical or physical treatment was applied. The plants were grown for 4-14 d in a greenhouse with an approximate 14-h photoperiod which was maintained at about 29° C. during the day and 26° C. during the night. Nutrients were added as Osmocote (17:6:10, Nitrogen:Phosphorus:Potassium (N:P:K)+minor nutrients) at 2 grams (g) per cup. Water was added on a regular basis to maintain the paddy flood, and supplemental lighting was provided with overhead metal halide 1000-Watt lamps as necessary. The plants were employed for testing when they reached the second or third true leaf stage. Treatments consisted of compounds 45, 34, and 66. For technical grade compounds, a weighed amount, determined by the highest rate to be tested, was placed in an individual 120 mL glass vial and was dissolved in 20 mL of acetone to obtain concentrated stock solutions. […] The concentrated stock solutions obtained were diluted with 20 mL of an aqueous mixture containing 2.5% Agri-dex crop oil concentrate (v/v). Applications were made by injecting an appropriate amount of the stock solution into the aqueous layer of the paddy. Control plants were treated in the same manner with the solvent blank. All treated plant material received the same concentration of acetone and crop oil concentrate. The treated plants and control plants were placed in a greenhouse as described above and water was added as needed to maintain a paddy flood. After approximately 3 weeks, the condition of the test plants, compared with that of the untreated plants, was determined visually and scored on a scale of 0 to 100 percent where 0 corresponds to no injury and 100 corresponds to complete kill. By applying the well-accepted probit analysis as described by J. Berkson in Journal of the […], 48, 565 (1953) and by D. Finney in “Probit Analysis” Cambridge University Press (1952) or by plotting the mean data and fitting a logarithmic curve to the portion of the data where there was a dose response using Microsoft Excel®, the above data can be used to calculate GR50 and GR90 values, which are defined as growth reduction factors that correspond to the effective dose of herbicide required to kill or control 50 percent or 90 percent, respectively, of a target plant.

[3] = test system: ECHOR = Echinochloa crus-galli P.B. var. oryzoides (VAS.) OHWI (early watergrass); assay: as above; conditions: 21 DAA
Procedure: as §4

[4] = test system: FIMMI = Fimbristylis miliacea (L.) VAHL (globe fringerush); assay: as above; conditions: 21 DAA
Procedure: as §4

[5] = test system: LEFCH = Leptochloa chinensis (L.) NEES (Chinese sprangletop); assay: as above; conditions: 21 DAA
Procedure: as §4

[6] = test system: LIDDU = Lindernia dubia (L.) PENNELL (low falsepimpernel); assay: as above; conditions: 21 DAA
Procedure: as §4

[7] = dose to kill or control 50 percent
[8] = dose to kill or control 90 percent

COc1c(N)cc(-c2ccc(Cl)cc2)nc1C(=O)O [Compound 46]
Visual Growth Reduction (%)-21 Days after Application SETFA [1]: 100% | Visual Growth Reduction (%)-21 Days after Application ZEAMX (ZEAMX: corn (Zea mays)): 0%

COc1c(C(=O)OCc2ccccc2)nc(-c2ccc(Cl)c(OC)c2F)c(F)c1N [Compound 66, benzyl 4-amino-6-(4-chloro-2-fluoro-3-methoxyphenyl)-5-fluoro-3-methoxypicolinate]
Mean Visual Injury (%)-21 Days After Application CYPRO ([2]; 4.38 g ae/ha): 65% | Mean Visual Injury (%)-21 Days After Application CYPRO ([2]; 8.75 g ae/ha): 100% | Mean Visual Injury (%)-21 Days After Application CYPRO ([2]; 17.5 g ae/ha): 100% | Mean Visual Injury (%)-21 Days After Application CYPRO ([2]; 35 g ae/ha): 100% | Mean Visual Injury (%)-21 Days After Application CYPRO ([2]; 70 g ae/ha): 100% | GR50 CYPRO [2, 7]: <4.38 g ae/ha | GR90 CYPRO [2, 8]: 7.2 g ae/ha | Mean Visual Injury (%)-21 Days After Application ECHOR ([3]; 2.19 g ae/ha): 0% | Mean Visual Injury (%)-21 Days After Application ECHOR ([3]; 4.38 g ae/ha): 0% | Mean Visual Injury (%)-21 Days After Application ECHOR ([3]; 8.75 g ae/ha): 8% | Mean Visual Injury (%)-21 Days After Application ECHOR ([3]; 17.5 g ae/ha): 21% | Mean Visual Injury (%)-21 Days After Application ECHOR ([3]; 35 g ae/ha): 89% | Mean Visual Injury (%)-21 Days After Application ECHOR ([3]; 70 g ae/ha): 95% | GR50 ECHOR [3, 7]: 21.2 g ae/ha | GR90 ECHOR [3, 8]: 59.0 g ae/ha | Mean Visual Injury (%)-21 Days After Application FIMMI ([4]; 2.19 g ae/ha): 0% | Mean Visual Injury (%)-21 Days After Application FIMMI ([4]; 4.38 g ae/ha): 10% | Mean Visual Injury (%)-21 Days After Application FIMMI ([4]; 8.75 g ae/ha): 36% | Mean Visual Injury (%)-21 Days After Application FIMMI ([4]; 17.5 g ae/ha): 73% | Mean Visual Injury (%)-21 Days After Application FIMMI ([4]; 35 g ae/ha): 100% | Mean Visual Injury (%)-21 Days After Application FIMMI ([4]; 70 g ae/ha): 100% | GR50 FIMMI [4, 7]: 10.3 g ae/ha | GR90 FIMMI [4, 8]: 29.7 g ae/ha | Mean Visual Injury (%)-21 Days After Application LEFCH ([5]; 2.19 g ae/ha): 0% | Mean Visual Injury (%)-21 Days After Application LEFCH ([5]; 4.38 g ae/ha): 0% | Mean Visual Injury (%)-21 Days After Application LEFCH ([5]; 8.75 g ae/ha): 0% | Mean Visual Injury (%)-21 Days After Application LEFCH ([5]; 17.5 g ae/ha): 0% | Mean Visual Injury (%)-21 Days After Application LEFCH ([5]; 35 g ae/ha): 16% | Mean Visual Injury (%)-21 Days After Application LEFCH ([5]; 70 g ae/ha): 100% | GR50 LEFCH [5, 7]: 40.9 g ae/ha | GR90 LEFCH [5, 8]: 71.2 g ae/ha | Mean Visual Injury (%)-21 Days After Application LIDDU ([6]; 2.19 g ae/ha): 0% | Mean Visual Injury (%)-21 Days After Application LIDDU ([6]; 4.38 g ae/ha): 100% | Mean Visual Injury (%)-21 Days After Application LIDDU ([6]; 8.75 g ae/ha): 100% | Mean Visual Injury (%)-21 Days After Application LIDDU ([6]; 17.5 g ae/ha): 100% | Mean Visual Injury (%)-21 Days After Application LIDDU ([6]; 35 g ae/ha): 100% | Mean Visual Injury (%)-21 Days After Application LIDDU ([6]; 70 g ae/ha): 100% | GR50 LIDDU [6, 7]: <4.38 g ae/ha | GR90 LIDDU [6, 8]: <4.38 g ae/ha
